Test results published in the supplement of paper PMC10307832.

Columns and labels:
Assay in all cases: relative viability (nuclei count vs DMSO), 5 days (fraction); higher = more cells survive
Veliparib + Lapatinib = compound: C[C@]1(c2nc3c(C(N)=O)cccc3[nH]2)CCCN1 [Veliparib] + CS(=O)(=O)CCNCc1ccc(-c2ccc3ncnc(Nc4ccc(OCc5cccc(F)c5)c(Cl)c4)c3c2)o1 [Lapatinib] (partner 2 µM)
In short: (§1)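 Relative viability is defined as nuclei in treated wells over nuclei in vehicle wells. Duplicate plates were run and medians reported. Lung cancer cell lines in 1536-well plates were dosed by pin tool one day after seeding, with one drug or with a fixed anchor-drug dose plus five library-drug doses (not always all listed) in √10 steps, and nuclei were counted after 5 days.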

Veliparib + Bortezomib = compound: C[C@]1(c2nc3c(C(N)=O)cccc3[nH]2)CCCN1 [Veliparib] + CC(C)C[C@H](NC(=O)[C@H](Cc1ccccc1)NC(=O)c1cnccn1)B(O)O [Bortezomib] (partner 0.002 µM)
In short: as §1

[1] = compound: COC1=CC=C(C=C1)CN2C=CC3=C2C=C(C=C3)C(=O)NO + Cc1cc(Nc2cc(N3CCN(C)CC3)nc(Sc3ccc(NC(=O)C4CC4)cc3)n2)n[nH]1 [Tozasertib] (partner 0.1 µM)
In short: as §1

[2] = compound: COC1=CC=C(C=C1)CN2C=CC3=C2C=C(C=C3)C(=O)NO + N=C(N)NC(=N)NCCc1ccccc1 [Phenformin] (partner 250 µM)
In short: as §1

| Cell Line | relative viability (Veliparib + Lapatinib; first compound 0.02 µM) | relative viability (Veliparib + Lapatinib; first compound 0.06325 µM) | relative viability (Veliparib + Lapatinib; first compound 0.2 µM) | relative viability (Veliparib + Lapatinib; first compound 0.6325 µM) | relative viability (Veliparib + Lapatinib; first compound 2 µM) | relative viability (Veliparib + Bortezomib; first compound 0.02 µM) | relative viability (Veliparib + Bortezomib; first compound 0.06325 µM) | relative viability (Veliparib + Bortezomib; first compound 0.2 µM) | relative viability (Veliparib + Bortezomib; first compound 0.6325 µM) | relative viability (Veliparib + Bortezomib; first compound 2 µM) | relative viability ([1]; first compound 0.253 µM) | relative viability ([1]; first compound 0.8 µM) | relative viability ([1]; first compound 2.53 µM) | relative viability ([1]; first compound 8 µM) | relative viability ([2]; first compound 0.253 µM) | relative viability ([2]; first compound 0.8 µM) | relative viability ([2]; first compound 2.53 µM) | relative viability ([2]; first compound 8 µM) | relative viability ([1]; first compound 0.08 µM) | relative viability ([2]; first compound 0.08 µM) |
| --- | --- | --- | --- | --- | --- | --- | --- | --- | --- | --- | --- | --- | --- | --- | --- | --- | --- | --- | --- | --- |
| HARA | 0.748 | 0.57 | 0.86 | 0.743 | 0.853 | 1.13 | 1.1 | 0.995 | 1.11 | 1.16 | 0.109 | 0.114 | 0.128 | 0.0964 | 0.455 | 0.511 | 0.43 | 0.317 | – | – |
| HCC-15 | 0.706 | 0.893 | 0.779 | 0.849 | 0.891 | 0.781 | 1.02 | 0.991 | 0.932 | 0.984 | 0.515 | 0.391 | 0.327 | 0.318 | 0.515 | 0.486 | 0.483 | 0.408 | 0.208 | 0.344 |
| IA-LM | 0.85 | 0.561 | 0.771 | 0.846 | 1.04 | 0.831 | 0.748 | 0.794 | 0.83 | 0.813 | – | – | – | – | – | – | – | – | – | – |
| LCLC-103H | – | – | – | – | – | 0.822 | 0.963 | 1.01 | 1.05 | 0.933 | 0.523 | 0.489 | 0.534 | 0.433 | 0.339 | 0.398 | 0.347 | 0.287 | 0.445 | 0.339 |
| LK-2 | 0.637 | 0.814 | 1.11 | 0.877 | 0.643 | – | – | – | – | – | 0.196 | 0.197 | 0.157 | 0.174 | 0.462 | 0.579 | 0.396 | 0.24 | – | – |
| NCI-H358 | – | 0.464 | 0.503 | 0.393 | 0.452 | – | – | – | – | – | 0.0969 | 0.108 | 0.131 | 0.0806 | 0.351 | 0.411 | 0.314 | 0.267 | – | – |
| NCI-H441 | – | – | – | – | – | 0.472 | 0.293 | 0.533 | 0.365 | 0.401 | 0.604 | 0.561 | 0.768 | 0.493 | 0.89 | 0.907 | 0.863 | 0.653 | 0.679 | 0.914 |
| NCI-H522 | – | – | – | – | – | – | – | – | – | – | 0.589 | 0.53 | 0.613 | 0.545 | 0.591 | 0.614 | 0.654 | 0.651 | – | – |
| NCI-H1299 | 0.972 | 0.944 | 0.951 | 0.956 | 0.978 | 1.04 | 0.979 | 1.02 | 1.03 | 1 | – | – | – | – | – | – | – | – | – | – |
| NCI-H1395 | – | 0.76 | 0.874 | 0.716 | 0.83 | – | – | – | – | – | 0.817 | 0.761 | 0.781 | 0.565 | 0.463 | 0.469 | 0.407 | 0.413 | 0.673 | 0.37 |
| NCI-H1563 | 0.695 | 1.02 | 0.976 | 0.978 | 0.987 | 0.645 | 0.803 | 0.859 | 0.792 | 0.799 | – | – | – | – | 0.676 | 0.671 | 0.664 | 0.534 | – | 0.622 |
| NCI-H1623 | – | – | – | – | – | – | – | – | – | – | 0.411 | 0.421 | 0.42 | 0.436 | 0.581 | 0.542 | 0.616 | 0.513 | 0.407 | 0.396 |
| NCI-H1648 | – | – | – | – | – | – | – | – | – | – | 0.573 | 0.479 | 0.399 | 0.473 | – | – | – | – | 0.415 | – |
| NCI-H1703 | 1.11 | 0.922 | 1.35 | 0.982 | 1.2 | 0.366 | 0.308 | 0.408 | 0.354 | 0.426 | – | – | – | – | – | – | – | – | – | – |
| NCI-H1792 | 0.922 | 0.719 | 0.962 | 0.983 | 0.832 | 0.924 | 0.858 | 0.981 | 0.916 | 0.897 | – | – | – | – | 0.358 | 0.29 | 0.19 | 0.129 | – | 0.455 |
| NCI-H1793 | 0.548 | 0.555 | 0.788 | 0.572 | 0.762 | – | – | – | – | – | 0.337 | 0.297 | 0.398 | 0.3 | 0.457 | 0.438 | 0.414 | 0.368 | – | – |
| NCI-H1944 | 0.825 | 0.748 | 0.627 | 0.72 | 0.767 | – | – | – | – | – | 0.262 | 0.261 | 0.262 | 0.234 | 0.234 | 0.195 | 0.188 | 0.165 | – | – |
| NCI-H2170 | 0.259 | 0.245 | 0.268 | 0.299 | 0.285 | – | – | – | – | – | 0.869 | 0.694 | 0.729 | 0.616 | 0.396 | 0.411 | 0.419 | 0.381 | 0.439 | 0.407 |
| NCI-H2342 | – | – | – | – | – | – | – | – | – | – | 0.701 | 0.544 | 0.531 | 0.47 | 0.511 | 0.48 | 0.453 | 0.409 | 0.497 | 0.588 |
| SK-MES-1 | 0.5 | 0.413 | 0.438 | 0.473 | 0.473 | – | – | – | – | – | 0.895 | 0.868 | 0.874 | 0.81 | 0.651 | 0.632 | 0.686 | 0.644 | 0.816 | 0.661 |
| SW 900 | – | – | – | – | – | – | – | – | – | – | 0.647 | 0.574 | 0.612 | 0.489 | 0.652 | 0.593 | 0.512 | 0.339 | 0.558 | 0.643 |
